Assay results reported in patent publication US20180362921A1, “EXTRACTION AND PROCESS FOR ACTIVE THYLAKOID MEMBRANES” (GROUPE SANTÉ DEVONIAN INC., priority 2015, published 2018).
Where two headings read alike, the source gives them in different places.

Target: T1, PSII reaction centers of thylakoid extract (Spinacia oleracea, UniProt P69560)
T1 construct: both lyophilized thylakoid extracts were resuspended in: Tris-HCl 50 mM pH 7.5; sorbitol 330 mM; from tissue; host or cells: plant thylakoid membrane extract (lyophilized, rehydrated)
Test: Inhibition of Fv/Fm (photosynthetic efficiency) of thylakoid extract by atrazine
Format: biochemical, Spinacia oleracea L.
Experimental: Each re-suspended extract was dark-incubated for 15 min with the appropriate atrazine concentration for 15 minutes.
Absorbed light was measured with a FMS1 Hansatech Instrument (Schreiber et al., 1986; lab based modulated fluorescence); under excitation light beam at 470 nm. In dark adapted condition, the following fluorescence parameters can be obtained or calculated: • Fo: minimal fluorescence when PSII reaction centers are in the fully oxidized state. It is obtained at the beginning of fluorescence measurement when only the modulating beam is illuminated. • Fm: obtained with an intense saturating pulse (2 000 μmol photons m^2/s) allowing maxi mum PSII fluorescence emission. • Fv: variable fluorescence is obtained by the difference between Fm and Fo and corresponds to maximum capacity for photochemical energy quenching.
Fv/Fm: this ratio is proportional to quantum efficiency of PSII reaction centers (Butker 1977, 1978) and represents a correlation between the chlorophyll fluorescence and the photochemical reactions (for instance oxygen evolution).
Any molecule affecting the photosystems will modify either Fo or Fm which modification necessarily disrupts (increases or decreases) the photosynthetic efficiency. […]

Question: Which IC50 (IC50 (atrazine concentration inhibiting 50% of the efficiency parameter), extract after 7 days at 20° C., 5 μg/mL chlorophyll, 15 min dark incubation) does the source give for CCNc1nc(Cl)nc(NC(C)C)n1 [atrazine] here?
Answer: Its IC50 is 116 nM.

Question: And the IC50 (several batches of thylakoid extract, 95% confidence, FIG. 4, read-out: IC50 of an accepted lot (within 2σ of the mean IC50))?
Answer: The IC50 was 76.5 to 218 nM.
